system: recombinant NL4-3 virus (Renilla luciferase in nef, Gag P373S); experiment: HIV Cell Culture Assay (luciferase reporter virus in MT-2 cells); format: cell-based; conditions: NL43
Description: MT-2 cells and 293T cells were obtained from the NIH AIDS Research and Reference Reagent Program. MT-2 cells were propagated in RPMI 1640 media supplemented with 10% heat inactivated fetal bovine serum, […]. The 293T cells were propagated in DMEM media supplemented with 10% heat inactivated fetal bovine serum (FBS), 100 units/ml penicillin G and 100 μg/ml streptomycin. The proviral DNA clone of NL4-3 was obtained from the NIH AIDS Research and Reference Reagent Program. A recombinant NL4-3 virus, in which a section of the nef gene from NL4-3 was replaced with the Renilla luciferase gene, was used as a reference virus. In addition, residue Gag P373 was converted to P373S. Briefly, the recombinant virus was prepared by transfection of the altered proviral clone of NL4-3. Transfections were performed in 293T cells using LipofectAMINE PLUS from Invitrogen (Carlsbad, Calif.), according to manufacturer's instruction. The virus was titered in MT-2 cells using luciferase enzyme activity as a marker. Luciferase was quantitated using the Dual Luciferase kit from Promega (Madison, Wis.), with modifications to the manufacturer's protocol. The diluted Passive Lysis solution was pre-mixed with the re-suspended Luciferase Assay Reagent and the re-suspended Stop & Glo Substrate (2:1:1 ratio). Fifty (50) μL of the mixture was added to each aspirated well on assay plates and luciferase activity was measured immediately on a Wallac TriLux (Perkin-Elmer). Antiviral activities of inhibitors toward the recombinant virus were quantified by measuring luciferase activity in cells infected for 4-5 days with NLRluc recombinants in the presence serial dilutions of the inhibitor. Table 1 is the key for the data in Table 2.

Row | SMILES | EC50 [nM]
1 | C=C(C)[C@@H]1CC[C@]2(C(=O)Nc3ccc(OC)cc3)CC[C@]3(C)[C@H](CC[C@@H]4[C@@]5(C)CC=C(c6ccc(C(=O)O)cc6)C(C)(C)[C@@H]5CC[C@]43C)[C@@H]12 [Example 14, 4-((1R,3aS,5aR,5bR,7aR,11aS,11bR,13aR,13bR)-3a-(4-methoxyphenylcarbamoyl)-5a,5b,8,8,11a-pentamethyl-1-(prop-1-en-2-yl)-2,3,3a,4,5,5a,5b,6,7,7a,8,11,11a,11b,12,13,13a,13b-octadecahydro-1H-cyclopenta[a]chrysen-9-yl)benzoic acid] | 110

same assay, conditions: NL43, read-out: EC50 Group

Row | SMILES | EC50 [nM]
2 | C=C(C)[C@@H]1CC[C@]2(C(=O)N[C@@H](CN(C)C)C(=O)O)CC[C@]3(C)[C@H](CC[C@@H]4[C@@]5(C)CC=C(c6ccc(C(=O)O)cc6)C(C)(C)[C@@H]5CC[C@]43C)[C@@H]12 [Example 65, 4-((1R,3aS,5aR,5bR,7aR,11aS,11bR,13aR,13bR)-3a-((S)-1-carboxy-2-(dimethylamino)ethylcarbamoyl)-5a,5b,8,8,11a-pentamethyl-1-(prop-1-en-2-yl)-2,3,3a,4,5,5a,5b,6,7,7a,8,11,11a,11b,12,13,13a,13b-octadecahydro-1H-cyclopenta[a]chrysen-9-yl)benzoic acid] | < 100
3 | C=C(C)[C@@H]1CC[C@]2(C(=O)NCCN(C)C)CC[C@]3(C)[C@H](CC[C@@H]4[C@@]5(C)CC=C(c6cc(F)c(C(=O)O)c(F)c6)C(C)(C)[C@@H]5CC[C@]43C)[C@@H]12 [Example 122, 4-((1R,3aS,5aR,5bR,7aR,11aS,11bR,13aR,13bR)-3a-(2-(dimethylamino)ethylcarbamoyl)-5a,5b,8,8,11a-pentamethyl-1-(prop-1-en-2-yl)-2,3,3a,4,5,5a,5b,6,7,7a,8,11,11a,11b,12,13,13a,13b-octadecahydro-1H-cyclopenta[a]chrysen-9-yl)-2,6-difluorobenzoic acid] | < 100
4 | C=C(C)[C@@H]1CC[C@]2(C(=O)NCC(N)=O)CC[C@]3(C)[C@H](CC[C@@H]4[C@@]5(C)CC=C(c6ccc(C(=O)O)cc6)C(C)(C)[C@@H]5CC[C@]43C)[C@@H]12 [Example 34, 4-((1R,3aS,5aR,5bR,7aR,11aS,11bR,13aR,13bR)-3a-(2-amino-2-oxoethylcarbamoyl)-5a,5b,8,8,11a-pentamethyl-1-(prop-1-en-2-yl)-2,3,3a,4,5,5a,5b,6,7,7a,8,11,11a,11b,12,13,13a,13b-octadecahydro-1H-cyclopenta[a]chrysen-9-yl)benzoic acid] | < 100
5 | C=C(C)[C@@H]1CC[C@]2(C(=O)NCCN3CCN(C)CC3)CC[C@]3(C)[C@H](CC[C@@H]4[C@@]5(C)CC=C(c6ccc(C(=O)O)cc6)C(C)(C)[C@@H]5CC[C@]43C)[C@@H]12 [Example 36, 4-((1R,3aS,5aR,5bR,7aR,11aS,11bR,13aR,13bR)-5a,5b,8,8,11a-pentamethyl-3a-(2-(4-methylpiperazin-1-yl)ethylcarbamoyl)-1-(prop-1-en-2-yl)-2,3,3a,4,5,5a,5b,6,7,7a,8,11,11a,11b,12,13,13a,13b-octadecahydro-1H-cyclopenta[a]chrysen-9-yl)benzoic acid] | < 100
6 | C=C(C)[C@@H]1CC[C@]2(C(=O)N[C@@H](CCSC)C(=O)O)CC[C@]3(C)[C@H](CC[C@@H]4[C@@]5(C)CC=C(c6ccc(C(=O)O)cc6)C(C)(C)[C@@H]5CC[C@]43C)[C@@H]12 [Example 63, 4-((1R,3aS,5aR,5bR,7aR,11aS,11bR,13aR,13bR)-3a-((S)-1-carboxy-3-(methylthio)propylcarbamoyl)-5a,5b,8,8,11a-pentamethyl-1-(prop-1-en-2-yl)-2,3,3a,4,5,5a,5b,6,7,7a,8,11,11a,11b,12,13,13a,13b-octadecahydro-1H-cyclopenta[a]chrysen-9-yl)benzoic acid] | > 100
7 | C=C(C)[C@@H]1CC[C@]2(C(=O)NCCC(C)C)CC[C@]3(C)[C@H](CC[C@@H]4[C@@]5(C)CC=C(c6ccc(C(=O)O)cc6)C(C)(C)[C@@H]5CC[C@]43C)[C@@H]12 [Example 129, 4-((1R,3aS,5aR,5bR,7aR,11aS,11bR,13aR,13bR)-3a-(isopentylcarbamoyl)-5a,5b,8,8,11a-pentamethyl-1-(prop-1-en-2-yl)-2,3,3a,4,5,5a,5b,6,7,7a,8,11,11a,11b,12,13,13a,13b-octadecahydro-1H-cyclopenta[a]chrysen-9-yl)benzoic acid] | < 100
8 | C=C(C)[C@@H]1CC[C@]2(C(=O)NCc3ccc(OC)cc3)CC[C@]3(C)[C@H](CC[C@@H]4[C@@]5(C)CC=C(c6ccc(C(=O)O)cc6)C(C)(C)[C@@H]5CC[C@]43C)[C@@H]12 [Example 15, 4-((1R,3aS,5aR,5bR,7aR,11aS,11bR,13aR,13bR)-3a-(4-methoxybenzylcarbamoyl)-5a,5b,8,8,11a-pentamethyl-1-(prop-1-en-2-yl)-2,3,3a,4,5,5a,5b,6,7,7a,8,11,11a,11b,12,13,13a,13b-octadecahydro-1H-cyclopenta[a]chrysen-9-yl)benzoic acid] | < 100
9 | C=C(C)[C@@H]1CC[C@]2(C(=O)NCc3ccncc3)CC[C@]3(C)[C@H](CC[C@@H]4[C@@]5(C)CC=C(c6ccc(C(=O)O)cc6)C(C)(C)[C@@H]5CC[C@]43C)[C@@H]12 [Example 28, 4-((1R,3aS,5aR,5bR,7aR,11aS,11bR,13aR,13bR)-5a,5b,8,8,11a-pentamethyl-1-(prop-1-en-2-yl)-3a-(pyridin-4-ylmethylcarbamoyl)-2,3,3a,4,5,5a,5b,6,7,7a,8,11,11a,11b,12,13,13a,13b-octadecahydro-1H-cyclopenta[a]chrysen-9-yl)benzoic acid] | < 100
10 | CN(C)CCNC(=O)[C@]12CCC(C)(C)C[C@H]1C1=CC[C@@H]3[C@@]4(C)CC=C(c5ccc(C(=O)O)cc5)C(C)(C)[C@@H]4CC[C@@]3(C)[C@]1(C)CC2 [Example B1, 4-((4aR,6aR,6bS,8aS,12aS,14aR,14bS)-8a-(2-(dimethylamino)ethylcarbamoyl)-4,4,6a,6b,11,11,14b-heptamethyl-1,4,4a,5,6,6a,6b,7,8,8a,9,10,11,12,12a,14,14a,14b-octadecahydropicen-3-yl)benzoic acid] | < 100
11 | C=CNC(=O)[C@]12CC[C@@H](C(=C)C)[C@@H]1[C@H]1CC[C@@H]3[C@@]4(C)CC=C(c5ccc(C(=O)O)cc5)C(C)(C)[C@@H]4CC[C@@]3(C)[C@]1(C)CC2 [Example 84, 4-((1R,3aS,5aR,5bR,7aR,11aS,11bR,13aR,13bR)-5a,5b,8,8,11a-pentamethyl-1-(prop-1-en-2-yl)-3a-(vinylcarbamoyl)-2,3,3a,4,5,5a,5b,6,7,7a,8,11,11a,11b,12,13,13a,13b-octadecahydro-1H-cyclopenta[a]chrysen-9-yl)benzoic acid] | < 100
12 | C=C(C)[C@@H]1CC[C@]2(C(=O)NCCCN3CCS(=O)(=O)CC3)CC[C@]3(C)[C@H](CC[C@@H]4[C@@]5(C)CC=C(c6cc(F)c(C(=O)O)c(F)c6)C(C)(C)[C@@H]5CC[C@]43C)[C@@H]12 [Example 123, 4-((1R,3aS,5aR,5bR,7aR,11aS,11bR,13aR,13bR)-3a-((3-(1,1-dioxido-4-thiomorpholinyl)propyl)carbamoyl)-1-isopropenyl-5a,5b,8,8,11a-pentamethyl-2,3,3a,4,5,5a,5b,6,7,7a,8,11,11a,11b,12,13,13a,13b-octadecahydro-1H-cyclopenta[a]chrysen-9-yl)-2,6-difluorobenzoic acid] | < 100
